Test results taken from BindingDB's records for doi:10.7270/Q2K072NW (Sanford-Burnham Center for Chemical Genomics, 2008).

Target: T1, Bcl-2-related protein A1 (Mus musculus, UniProt Q07440)
T1 sequence (Q07440 whole entry): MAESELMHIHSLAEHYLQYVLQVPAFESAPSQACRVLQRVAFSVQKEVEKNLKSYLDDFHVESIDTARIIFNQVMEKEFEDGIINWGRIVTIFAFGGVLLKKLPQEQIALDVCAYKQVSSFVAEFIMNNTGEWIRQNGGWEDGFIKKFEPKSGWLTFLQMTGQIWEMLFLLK
Assay: small-molecule antagonists of Bfl-1/BH3 interaction – biochemical, TR-FRET, mouse Bfl-1, confirmation (AID 621)

IC50 [µM]	Structure (SMILES)
> 100	O=C1C(=O)N(c2ncccn2)C(c2cccc(Cl)c2)C1C(=O)c1ccco1 (configuration not stated) [2-(3-chlorophenyl)-3-(furan-2-carbonyl)-4-hydroxy-1-pyrimidin-2-yl-2H-pyrrol-5-one]
> 100	OCCCc1nc2n(n1)C(c1cccs1)CC(c1ccccc1)=N2 (configuration not stated) [3-(5-phenyl-7-thiophen-2-yl-1,7-dihydro-[1,2,4]triazolo[1,5-a]pyrimidin-2-yl)-1-propanol]
96.5	O=C1C(=Nc2ccc(F)cc2)C(Cl)C(=O)N1c1ccc(Cl)c(Cl)c1 (configuration not stated) [3-chloranyl-1-(3,4-dichlorophenyl)-4-[(4-fluorophenyl)amino]pyrrole-2,5-dione]
> 100	COc1ccc(N2C(=O)C(=Nc3c(C)n(C)n(-c4ccccc4)c3=O)C(Cl)C2=O)cc1 (configuration not stated) [3-chloranyl-4-[(1,5-dimethyl-3-oxidanylidene-2-phenyl-pyrazol-4-yl)amino]-1-(4-methoxyphenyl)pyrrole-2,5-dione]
> 100	Cc1ccc(C2C3CN(C(C)C)CCC3=C(C#N)C(=N)C2(C#N)C#N)cc1 (configuration not stated) [SMR000034220]
4.96	COCC=Nc1c(Cl)c(O)n(-c2ccc(Cl)c(Cl)c2)c1O [3-chloranyl-1-(3,4-dichlorophenyl)-4-(2-methoxyethylamino)pyrrole-2,5-dione]
> 100	c1ccc(-c2ccc(C3=Nc4ncnn4C(c4ccco4)C3)cc2)cc1 (configuration not stated)
> 100	CN1CCC2=C(C#N)C(=N)C(C#N)(C#N)C(c3cccc(Cl)c3Cl)C2C1 (configuration not stated) [6-azanyl-8-[2,3-bis(chloranyl)phenyl]-2-methyl-1,3,8,8a-tetrahydroisoquinoline-5,7,7-tricarbonitrile]
> 100	CCCN1CCC2=C(C#N)C(=N)C(C#N)(C#N)C(c3cccc(OC)c3OC)C2C1 (configuration not stated) [6-amino-8-(2,3-dimethoxyphenyl)-2-propyl-1,3,8,8a-tetrahydroisoquinoline-5,7,7-tricarbonitrile]
2.54	Cc1ccc(N=C2C(=O)N(c3ccc(C)cc3)C(=O)C2Cl)cc1 (configuration not stated) [3-chloranyl-1-(4-methylphenyl)-4-[(4-methylphenyl)amino]pyrrole-2,5-dione]
73.7	Oc1c(Cl)c(N=Cc2ccccc2)c(O)n1-c1ccc(Cl)c(Cl)c1 [MLS-0067125.0001]
> 100	CN1CCC2=C(C#N)C(=N)C(C#N)(C#N)[C@H](c3cccc(Cl)c3)C2C1 (stereo partly drawn) [(8S)-6-amino-8-(3-chlorophenyl)-2-methyl-1,3,8,8a-tetrahydroisoquinoline-5,7,7-tricarbonitrile]
